tested on: mESC Bmi1-luciferase reporter, firefly/renilla ratio, 24 h; assay: Bmi1-luciferase reporter activators in mESC, dose response, esBAF inhibitor project, mouse embryonic stem cells, cherry-pick (AID 651717);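 further: luciferase knocked into Bmi1 locus with EF-1a renilla as cell number control; rising ratio signals esBAF inhibition which derepresses Bmi1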

Row | Structure (SMILES) | AC40 [µM]
1 | CC(=O)Nc1nc(-c2ccc(-c3ccccc3)cc2)cs1 | 1.56
2 | COc1cccc(N2CCN(C(=O)c3ccc4nc(N5CCCCC5)sc4c3)CC2)c1 | 5.88
3 | Cc1nc(-c2ccccc2)nc2[nH]ccc(=O)c12 | 4.23
4 | CCN1CCN(c2ccc(NC(=O)c3cccc(N4CCCC4=O)c3)cc2)CC1 | 10.3
5 | Fc1ccccc1NC(=S)N1CCC(c2ccccc2)C1 (stereo not drawn) | 0.517
6 | CCCCN(Cc1ccccc1)c1ncnc2nc[nH]c12 | 10.1
7 | Cc1ccccc1-c1nnc(-c2cccc3ccccc23)o1 | 0.85
8 | CC(C)CN1C(=O)c2ccc(C(=O)Nc3nccs3)cc2C1=O | 1.98
9 | COc1ccc(/C=C2/SC(=O)N(CCNC(=O)CC(NC(C)=O)c3ccccc3)C2=O)cc1 (stereo not drawn) | 10.2
10 | O=C(Cc1ccccc1)Nc1nc(-c2cccs2)cs1 | 8.2
11 | COc1ccc2c(c1OC)C(=O)OC2Nc1nc(-c2cc3cc(Br)ccc3oc2=O)cs1 (stereo not drawn) | 1.25
12 | Nc1cc2c(cc1Br)-c1ccccc1C2=NO | 9.76
13 | Cc1ccc2c(CN(C)Cc3cccc(F)c3)cc(=O)oc2c1 | 2.23
14 | COC(=O)C(Cc1c[nH]c2ccccc12)NC(=O)c1ccc2nc[nH]c2c1 (stereo not drawn) | 14.7
15 | O=C1c2ccccc2C2N1CCCN2C(=O)c1sc2ccccc2c1Cl (stereo not drawn) | 4.3
16 | O/N=C\c1cnc(N2CCN(c3ccccc3)CC2)s1 | 2.47
17 | COc1ccc(NC(=O)c2cc3sccc3n2Cc2ccc(F)cc2)cc1OC | 13.8
18 | COc1ccc2nc3sc(C(=O)NCCN4CCc5ccccc5C4)cc3cc2c1 | 5.77
19 | COc1cccc2cc(C(=O)N3CCc4ccccc4C3)c(=O)oc12 | 26.9
20 | S=c1[nH]nc(SCc2ccccc2)c2[nH]cnc12 | 5.52
21 | Cc1ccnc(NC(=O)c2ccc(OCc3c(C)noc3C)cc2)c1 | 3.44
22 | Cc1ccc(C)c(N2CCN(C(=O)CCc3nc(-c4ccccc4Br)no3)CC2)c1 | 15.8
23 | CC1CCC(NC(=O)c2cc3ccccc3cc2O)CC1 (stereo not drawn) | 0.967
24 | c1ccc(Oc2cc(-c3ccccc3)ncn2)cc1 | 2.16
25 | COc1ccccc1C(=O)NCCC(=O)NC1CCC(C)CC1 (stereo not drawn) | 4.6

Row | Structure (SMILES) | AC40 [µM]
26 | COc1cc(/C=C/c2ccc(O)cc2)cc(OC)c1 | 2.31
27 | COc1ccc(/C=N/NC(=O)Cc2cccs2)cc1 | 8.51
28 | CN(CC(=O)Nc1cccc(F)c1)C(=O)c1sc2ccccc2c1Cl | 23.3
29 | CCn1c(O)c(/C=C2\C=Nc3ccccc32)sc1=Nc1ccccc1 | 14.2
30 | COC(=O)C(Cc1ccc(OC(=O)c2ccc(Cl)cc2)cc1)N1Cc2ccccc2C1=O (stereo not drawn) | 3.13
31 | CN(CC(=O)Nc1ccccc1Br)C(=O)c1cc2c(s1)CCCCC2 | 2.75
32 | O=C(NCCc1ccccc1)c1nccc2ccccc12 | 6.84
33 | COc1ccc(-n2nc(C(=O)NCC(=O)N3CCN(c4ccccc4F)CC3)c3ccccc3c2=O)cc1 | 1.22
34 | Cc1cccc(NC(=O)CCCc2ccccc2)c1 | 9.57
35 | COc1ccc2c(c1OC)C(=O)N1c3ccccc3SC21 (stereo not drawn) | 0.438
36 | COc1cccc(N(C(=O)c2cccs2)c2nc3ccccc3s2)c1 | 3.76
37 | COc1ccc(C)c2sc(=NC(=O)c3cccc(N4C(=O)CCC4=O)c3)n(C)c12 | 1.81
38 | Cc1sc(NC(=O)c2cccs2)nc1-c1ccccc1 | 5.47
39 | Cc1ccc(NCC(=O)N/N=C/c2cc3ccccc3nc2Cl)cc1 | 30.6
40 | Cc1ccccc1CNC(=O)Nc1ccc(Cl)cc1 | 15.1
41 | Cc1ccc(NC(=O)C2CCCN(c3ncccn3)C2)cc1F (stereo not drawn) | 1.16
42 | CC(C)(C)Nc1nc(Cl)nc(Nc2ccccc2)n1 | 2.09
43 | N#Cc1ccc(Nc2nc(-c3ccccc3)cs2)cc1 | 3.97
44 | CC(=O)Nc1ccc(-c2nnc(SCC(=O)Nc3ccc4c(c3)oc3ccccc34)n2C)cc1 | 6.97
45 | CC/C(=N\NC(=O)c1cc(C2CC2)[nH]n1)c1ccccc1 | 4.25
46 | COc1ccc(Nc2cc(C)c3c(O)cccc3n2)cc1 | 3.84
47 | CO[C@@H]1CN(C)C(=O)c2cc(NC(=O)Nc3ccc4c(c3)OCO4)ccc2OC[C@@H](C)NC[C@@H]1C | 3.02
48 | CCCC(=O)Nc1nc(-c2ccc(OC)cc2)cs1 | 7.09
49 | CNc1cnc(-c2ccc(F)c(F)c2F)cn1 | 1.54
50 | CC(=O)Nc1ccc(-c2nc3c(C)cccc3[nH]2)cc1 | 1.25

Row | Structure (SMILES) | AC40 [µM]
51 | Fc1cc(Cl)cc2ccc(-c3ccccc3)nc12 | 1.45
52 | O=C(COC(=O)[C@H](Cc1c[nH]c2ccccc12)NC(=O)c1ccc(Cl)cc1)Nc1ccc2c(c1)OCO2 | 10.5
53 | O=C(C[C@@H]1CC[C@@H]2[C@H](COC[C@H](O)CN2C(=O)Nc2ccc(Cl)cc2)O1)NCC1CCCCC1 | 2.62
54 | c1ccc(-c2nnc3oc(-c4cccs4)nn23)cc1 | 5.88
55 | Cc1cccc(-c2nc(C#N)c(N3CCCCCC3)o2)c1 | 16.7
56 | O=C(CCCc1ccccn1)c1ccc(-c2ccccc2)cc1 | 4.03
57 | CCc1c(C(=O)OCc2ccccc2)[nH]c(C)c1C | 2.03
58 | Cc1ccc(-c2nc3ccccc3[nH]2)cn1 | 3.49
59 | O=c1ccc2ccc(OCc3ccccc3)cc2o1 | 3.55
60 | COc1ccc(CNC(=O)Nc2cccc(C)c2)cc1 | 5.8
61 | CO[C@H]1CN(C)C(=O)c2ccc(NC(=O)Nc3ccc4c(c3)OCO4)cc2OC[C@@H](C)NC[C@H]1C | 3.55
62 | OC(c1ccccc1)c1nc(/C=C/c2ccccc2)cs1 (stereo not drawn) | 4.88
63 | CN(C)S(=O)(=O)c1ccc2c(c1)/C(=C/c1cc3c([nH]1)CCCC3)C(=O)N2 | 3.25
64 | CCCCCCCSc1ncnc2[nH]ncc12 | 17.1
65 | OC(c1cccc(F)c1)c1ncc(-c2ccc3ccccc3c2)[nH]1 (stereo not drawn) | 9.76
66 | Cc1ccc(OCc2cc(C(=O)NCCc3cccnc3)no2)cc1C | 11.9
67 | O=C(Cn1c(/C=C/c2ccccc2)nc2ccccc21)Nc1ccc(F)cc1 | 2.78
68 | N/C(=N\OC(=O)CC1CCCCC1)c1ccccn1 | 3.84
69 | Cc1ccc(NCSc2ccc(Cl)cc2)cc1 | 1.66
70 | Cc1ccc(O)c(N=Cc2ccc(C)s2)c1 | 25.8
71 | COc1ccccc1-c1cnc(C(O)c2ccc(C)cc2)[nH]1 (stereo not drawn) | 10.2
72 | O=C(Nc1ccc(Cl)c(Cl)c1)c1ccncc1 | 6.32
73 | CCCCc1nc2cc(C(=O)N3CCCCC3C(=O)OC)ccc2o1 (stereo not drawn) | 13
74 | O=c1c(-c2nc3ccccc3s2)cccn1Cc1ccc(Cl)cc1 | 3.09
75 | O=C(c1ccc(Cl)cc1)c1cnc(-c2ccc(Cl)cc2)s1 | 2.84

Row | Structure (SMILES) | AC40 [µM]
76 | O=C(N/N=C/c1cnc2ccccc2n1)c1cccc(F)c1 | 4.89
77 | Cc1ccnc(NC(=O)CCCc2ccccc2)c1 | 5.74
78 | COc1ccc(-c2cc(C(=O)Nc3ccc(NC(C)=O)cc3)[nH]n2)c(C)c1 | 1.21
79 | Cc1ccccc1C(=O)c1cccn1CC(=O)NCc1ccccc1Cl | 9.17
80 | Cn1c(COc2ccccc2)nc2ccccc21 | 2.59
81 | COc1ccc2[nH]c(=O)c(-c3nnn(-c4ccccc4)n3)cc2c1 | 11.6
82 | CCn1c(SCc2ccccc2Cl)nc2ccccc21 | 5.49
83 | CCCN1C[C@@H](C)[C@H](OC)CN(C)C(=O)c2cc(NC(=O)c3ccccc3F)ccc2OC[C@H]1C | 5.77
84 | Cc1ccc(C)c(N2CCN(C(=O)CCc3nc(-c4ccccc4C(F)(F)F)no3)CC2)c1 | 4.63
85 | O=C(Nc1ccc(-c2cnco2)cc1)c1ccc(F)cc1F | 4.28
86 | CCc1ccccc1NC(=O)c1cc(-c2cccc(O)c2)on1 | 5.03
87 | Cc1sc2c(c1C)CN(C(C)(C)C)CN2C(=O)c1ccccc1 | 1.37
88 | O=C(c1cccs1)N(C(=O)c1cccs1)c1ccc(Br)cn1 | 1.09
89 | Cc1nc2c(sc3nc4c(cc32)COC(C)(C)C4)c(=O)n1Cc1ccccc1 | 1.18
90 | CCN(C(=O)CN1C(=O)S/C(=C\C=C\c2ccccc2)C1=O)C1CCS(=O)(=O)C1 (stereo not drawn) | 3.85
91 | O=C(Cc1cccs1)Nc1nc2c(s1)CCCC2 | 1.66
92 | Cc1cc2nc(N3CCN(C(=O)c4cccs4)CC3)sc2cc1C | 1.98
93 | Nc1cc(OCc2ccccc2)ccc1OCc1ccccc1 | 5.17
94 | CCCC1c2ccc(C)n2CCN1C(=O)Nc1ccccc1Cl (stereo not drawn) | 6.07
95 | Cc1cccc(NC(=O)Nc2cccc(F)c2)n1 | 8.39
96 | CC(=O)Nc1ccc2c(c1Br)Cc1ccccc1-2 | 2.53
97 | Cc1ccc(C(=O)NCC(=O)Nc2ccc3c(c2)CCC3)cc1 | 1.44
98 | c1ccc2cc(C3CCCCC3)ncc2c1 | 4.49
99 | Cc1cccc(N/N=C/c2ccc(C)s2)c1 | 2.91
100 | Cc1ccc(C)c(NC(=O)c2cc(-c3ccccc3O)n[nH]2)c1 | 11.5

Row | Structure (SMILES) | AC40 [µM]
101 | CC(Cc1cccs1)NC(=O)c1cccc(Cl)c1 (stereo not drawn) | 2.76
102 | O=C(c1cc2ccccc2oc1=O)N(Cc1cccs1)C1CCS(=O)(=O)C1 (stereo not drawn) | 3.94
103 | O=C(O)c1ccc2c(c1)C(=O)N(CCc1c[nH]c3ccccc13)C2=O | 5.77
104 | CCOc1ccc2nc(NC(=O)CSc3nnc(-c4ccncc4)n3CC3CCCO3)sc2c1 (stereo not drawn) | 7.34
105 | COc1cccc(NC(=O)c2ccc3c(c2)CCN3S(C)(=O)=O)c1 | 7.43
106 | Cc1ccc(NC(=O)Nc2ccc(F)c(Cl)c2)cc1 | 1.85
107 | Nc1nc(SCc2ccccc2)cc(SCc2ccccc2)n1 | 4.44
108 | O=c1oc(-c2ccccc2)cc2ccccc12 | 3.89
109 | Cc1ccc(C(=O)Nc2ccc3c(c2)OCO3)cc1S(=O)(=O)N1CCCCC1 | 1.69
110 | Cn1c(/C=C/c2ccc(Br)cc2)nc2ccccc2c1=O | 4.88
111 | CN(C)c1ccc(-c2csc(C(O)c3ccc(F)cc3)n2)cc1 (stereo not drawn) | 1.63
112 | CCS(=O)(=O)n1nc(-c2ccc(OC)cc2)nc1SC | 5.54
113 | Oc1ccccc1C=NN1CCCCCC1 | 1.93
114 | O=C(Nc1ccccc1)c1cc(C2CCCN(C(=O)CCc3ccccc3)C2)on1 (stereo not drawn) | 5.03
115 | O=C(Nc1ccc(SC(F)F)cc1)C12CCC(CC1)C2 | 5.66
116 | CCn1c(COc2ccc(OC)cc2)nc2ccccc21 | 2.81
117 | CCn1c(COc2ccccc2)nc2ccccc21 | 22
118 | CCCCc1nc2cc(C(=O)N3CCN(c4nc(C)cnc4C)CC3)ccc2o1 | 2.43
119 | CC(C)Cn1cnc2c(SCc3ccccc3)nc(N)nc21 | 8.9
120 | c1ccc(CCNc2nc3ccccc3s2)cc1 | 3.14
121 | CN1CCN(C(=O)C[C@@H]2CC[C@@H]3[C@H](COC[C@@H](O)CN3C(=O)Nc3ccc4c(c3)OCO4)O2)CC1 | 24.2
122 | Cc1ccc(C(=O)Nc2cccc(O)c2)cc1S(=O)(=O)N1CCCCCC1 | 14.5
123 | C/C(=N\OC(=O)NC(C)C)c1sc(-c2ccccc2)nc1C | 7.63

Source: PubChem BioAssay AID651717 (Broad Institute, 2012)
